Reference: ChEMBL document CHEMBL5728033 (2020)

Target: Beta-lactamase (Escherichia coli K-12, UniProt P00811)
Assay: Inhibition of Beta-Lactamase Enzymes: A buffer consisting of 0.1 M sodium phosphate (pH 7.0), 10 mM NaHCO3, and 0.005% Triton X-100 was used for all enzymes. The chromogenic substrate nitrocefin (SynGene, Bangalore, India) was used at 100 μM. Enzyme activity was monitored by the 490 nm absorbance increase upon nitrocefin hydrolysis. Assays were performed in clear polystyrene 384-well plates (Greiner Bio-One, Monroe, N.C.). Absorbance was measured for 1 hour at 30-s intervals using a Spectramax absorbance plate reader (Molecular Devices, Sunnyvale, Calif.). Measurement of beta-lactamase inhibition by INHIBITOR employed serial 3-fold dilutions of the inhibitor in assay buffer, ranging from 100 μM to 62.7 pM. A background absorbance progress curve for a control lacking enzyme and inhibitor was subtracted from each progress curve.
Format: single protein

Chain of Beta-lactamase (P00811 whole entry): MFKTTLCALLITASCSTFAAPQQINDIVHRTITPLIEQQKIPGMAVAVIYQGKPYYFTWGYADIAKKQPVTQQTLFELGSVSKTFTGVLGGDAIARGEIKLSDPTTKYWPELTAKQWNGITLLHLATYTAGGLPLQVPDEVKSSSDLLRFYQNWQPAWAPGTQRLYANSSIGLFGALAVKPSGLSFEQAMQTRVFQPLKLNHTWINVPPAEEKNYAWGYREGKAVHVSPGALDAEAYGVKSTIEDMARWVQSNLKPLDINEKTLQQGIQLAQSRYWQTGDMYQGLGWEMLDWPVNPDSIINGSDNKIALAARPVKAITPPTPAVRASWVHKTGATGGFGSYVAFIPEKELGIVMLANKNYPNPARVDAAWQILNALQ

| SMILES | IC50 [µM] |
| --- | --- |
| CC1=C[C@@H]2CN(C(=O)N2OC(F)(F)C(=O)O)[C@@H]1C(N)=O | 0.012 |
| NC(=O)[C@@H]1C(C2CC2)=C[C@@H]2CN1C(=O)N2O[C@@H](F)C(=O)O | 0.095 |
| CC1=C[C@@H]2CN(C(=O)N2O[C@@H](F)C(=O)O)[C@@H]1C(=O)NCCS(N)(=O)=O | 0.0041 |
| CC1=C[C@@H]2CN(C(=O)N2OCC(=O)O)[C@@H]1C(N)=O | 1.2 |
| CC1=C[C@@H]2CN(C(=O)N2O[C@@H](F)C(=O)O)[C@@H]1C(=O)NC1COC1 | 0.054 |
| CC1=C[C@@H]2CN(C(=O)N2O[C@@H](F)C(=O)O)[C@@H]1C(N)=O | 0.071 |
| CC1=C[C@@H]2CN(C(=O)N2O[C@H](F)C(=O)O)[C@@H]1C(N)=O | 0.011 |
| CC1=C[C@@H]2CN(C(=O)N2O[C@@H](F)C(=O)O)[C@@H]1C(=O)NOCC1CC1 | 0.13 |
| CC1=C[C@@H](C(N)=O)N2C[C@@H]1N(O[C@@H](F)C(=O)O)C2=O | 0.3 |
| CC1=C[C@@H]2CN(C(=O)N2O[C@@H](F)C(=O)O)[C@@H]1C(=O)NCCNS(N)(=O)=O | 0.014 |
| CC1=C[C@@H](C(N)=O)N2C[C@@H]1N(OCC(=O)O)C2=O | 4.6 |
| CC1=C[C@@H](C(N)=O)N2C[C@@H]1N(O[C@H](F)C(=O)O)C2=O | 0.16 |
| CC1=C[C@@H]2CN(C(=O)N2O[C@@H](F)C(=O)O)[C@@H]1C(=O)NCO | 0.017 |
| CC1=C[C@@H]2CN(C(=O)N2O[C@@H](F)C(=O)O)[C@@H]1C(=O)NOC[C@@H]1CC(F)(F)CN1 | 0.04 |
| CC1=C[C@@H]2CN(C(=O)N2O[C@@H](F)C(=O)O)[C@@H]1C(=O)NCCC(N)=O | 0.0044 |
| CC1=C[C@@H]2CN(C(=O)N2O[C@@H](F)C(=O)O)[C@@H]1C(=O)NCCNS(C)(=O)=O | 0.0073 |
| CC1=C[C@@H]2CN(C(=O)N2O[C@@H](F)C(=O)O)[C@@H]1C(=O)NOC[C@@H]1CCC(=O)N1 | 0.053 |
| CC1=C[C@@H]2CN(C(=O)N2O[C@@H](F)C(=O)O)[C@@H]1C(=O)NCc1cnccn1 | 0.002 |
| CC1=C[C@@H]2CN(C(=O)N2O[C@@H](F)C(=O)O)[C@@H]1C(=O)NCc1ncco1 | 0.0093 |

| SMILES | IC50 [µM] |
| --- | --- |
| CC1=C[C@@H]2CN(C(=O)N2O[C@@H](F)C(=O)O)[C@@H]1C(=O)NOC[C@@H]1CCCN1 | 0.41 |
| O=C(O)C(F)ON1C(=O)N2C[C@H]1CC[C@H]2C(=O)NC1CCNCC1 (some centres not stated) | 1.6 |
| CC1=C[C@@H]2CN(C(=O)N2O[C@@H](F)C(=O)O)[C@@H]1C(=O)NOCCS(N)(=O)=O | 0.14 |
| CC1=C[C@@H]2CN(C(=O)N2O[C@@H](F)C(=O)O)[C@@H]1C(=O)NCCCS(N)(=O)=O | 0.022 |
| CC1=C[C@@H]2CN(C(=O)N2O[C@@H](F)C(=O)O)[C@@H]1C(=O)NCC#N | 0.014 |
| CC1=C[C@@H]2CN(C(=O)N2O[C@@H](F)C(=O)O)[C@@H]1CNC(=O)OC(C)(C)C | 44 |
| NC(=O)[C@@H]1CC[C@@H]2CN1C(=O)N2O[C@H](F)C(=O)O | 2 |
| NC(=O)[C@@H]1C(C2CC2)=C[C@@H]2CN1C(=O)N2O[C@H](F)C(=O)O | 0.022 |
| CC1=C[C@@H](C(N)=O)N2C[C@@H]1N(OC(F)(F)C(=O)O)C2=O | 0.036 |
| CC1=C[C@@H]2CN(C(=O)N2O[C@@H](F)C(=O)O)[C@@H]1C(=O)NCC[C@@H]1CCC(=O)N1 | 0.01 |
| CC(=O)NNC(=O)[C@@H]1C(C)=C[C@@H]2CN1C(=O)N2OC(F)C(=O)O (some centres not stated) | 0.0083 |
| CC1=C[C@@H]2CN(C(=O)N2OC(F)C(=O)O)[C@@H]1C(=O)NCc1cnccn1 (some centres not stated) | 0.0018 |
| CC1=C[C@@H](C#N)N2C[C@@H]1N(O[C@H](F)C(=O)O)C2=O | 0.59 |
| CC(=O)NCNC(=O)[C@@H]1C(C)=C[C@@H]2CN1C(=O)N2O[C@@H](F)C(=O)O | 0.0031 |
| CC1=C[C@@H]2CN(C(=O)N2OC(F)C(=O)O)[C@@H]1c1nnc(C(N)=O)o1 (some centres not stated) | 0.18 |
| CC1=C[C@@H]2CN(C(=O)N2O[C@@H](F)C(=O)O)[C@@H]1C(=O)NCNS(N)(=O)=O | 0.0021 |
| CC1=C[C@@H]2CN(C(=O)N2OC(C)(F)C(=O)O)[C@@H]1C(N)=O (mixture of isomers) | 0.4 |
| CC1=C[C@@H]2CN(C(=O)N2OC(F)C(=O)O)[C@@H]1C(N)=O (mixture of isomers) | 0.02 |
